The values that follow are results of earlier work, collected in patent publication US9662346B2, “Method of treating hyperesthesia, paresthesia, dolor, and pruritus caused by insect stings or noxious weeds or plants using avermectin compound” (priority 2007, dated 2017).

One data set has as its system head lice. The conditions noted are these: single topical application.
For data set [1] the following is noted: oral dosage of a moderate ivermectin concentration.

For the substance ivermectin, the “effect on head lice” value in the data set on head lice is recorded as “curative effect”. For the same substance, the safety in human entry in data set [1] was “safe in human, without serious adverse side effects”.
